Here are results for 1 molecule from patent publication US8048455B2, “Treatment of cancer and inflammatory disorder” (Academia Sinica, priority 2006, dated 2011).

Series [1] deals with iNOS mRNA. The series can be described thus: iNOS mRNA expression (RT-PCR) in LPS-stimulated RAW264.7 cells. Type of series: cell-based, murine. The conditions noted are these: LPS 1 μg/mL 6 h. The protocol: (§1) For each RT-PCR analysis, 2 μg of total RNA isolated with TRIZOL® Reagent was used to synthesize 1st-strand cDNA using […]™ II Reverse Transcriptase (Invitrogen). The iNOS and COX-2 genes were amplified and analyzed using specific oligonucleotide primers and PCR reactions by method described in Chiang et al. Br J Pharmacol 2005; 146:352-63).
RAW264.7 cells were treated with various concentrations of dLGG for 1 hour, then incubated with LPS (1 μg/mL) for 6 hours. Total cellular RNA was subjected to RT-PCR, and final PCR product resolved by 1% agarose gel electrophoresis.

In series [2] the test system is COX-2 mRNA. The series can be described thus: COX-2 mRNA expression (RT-PCR) in LPS-stimulated macrophages. The format is cell-based, murine. The conditions noted are these: 75 μg/mL. The protocol:
as §1
(§2) It was further examined whether dLGG affects COX-2 mRNA and protein expression using RT-PCR and immunoblotting. Cells were treated with dLGG for 1 hour, then LPS (1 μg/mL) was added for 18 hours. Total cellular protein (20 μg) was subjected to immunoblotting. Quantification of COX-2 mRNA and protein expression involved normalization to GA3PDH by densitometry.

Series [3] has as its system COX-2 protein. Put plainly: COX-2 protein expression (immunoblotting) in LPS-stimulated macrophages. Type of series: cell-based, murine. The note with it: LPS 18 h. On the procedure:
Total cellular proteins and the specific cytosolic and nuclear proteins were prepared using methods described in Chiang et al. Protein content was measured by the Bradford method (Bio-Rad). Protein was resolved by 5-20% gradient SDS-PAGE and subjected to immunoblotting using enhanced chemiluminescence reagents (ECL, Amersham). Monoclonal antibodies against PARP (Transduction Laboratories, Lexington, Ky.), GA3PDH (Biogenesis, Poole, UK), α-tubulin (Oncogene Science, Cambridge, UK), COX-2 (Cayman Chemical), phospho-(Ser32)-IκBα, phospho-IKKα(Ser180)/IKKβ(Ser181) (New England Biolabs, Beverly, Mass.), iNOS, IκBα, IKKα/β or NF-κB p65 (RelA) (Santa Cruz Biotechnology, Santa Cruz, Calif.) were used.
as §2

The test system of series [4] is IKKα/β. Put plainly: IKKα/β phosphorylation, IRAK-1 degradation and IKK kinase assay in LPS-stimulated RAW 264.7 cells. The format is cell-based, murine. The protocol: Whole cell lysates (300 μg) of macrophages were pre-cleaned by incubation with 0.25 μg IgG and 20 μL protein A/G plus agarose beads (Santa Cruz) for 30 minutes at 4° C. Supernatants were then collected and incubated with IKKα/β antibody and protein A/G plus agarose beads at 4° C. overnight. Precipitates were washed with an IP buffer and a kinase buffer. IKK kinase activity was assayed by adding 1 μg of GST-IκBα fusion protein (Santa Cruz) and 200 μM ATP in 20 μL kinase buffer for 30 minutes at 30° C. and then stopped by mixing with the Laemmli's loading buffer and heated at 100° C. for 5 minutes. Samples were then subjected to immunoblotting.
Assays were carried out in RAW 264.7 cells to examine the effects of dLGG on levels of IKKα/β and phospho-IKKα/β, the upstream kinase of IκBα in the NF-κB signaling pathway, and the upstream kinase, IRAK-1, for activating IKK complex. Cells were pretreated with various concentrations of dLGG for 1 hours, followed by LPS stimulation (1 μg/mL for 30 min). Specific IKKα/β and the phosphorylated forms of IKKα/β or GST-IκBα were detected by immunoblotting. IKKα/β immunoprecipitates were prepared from total cell lysate using anti-IKKα/β antibody and subsequently subjected to IKK kinase assay using GST-IκBα as substrate. […] (nuclear protein) and α-tubulin (cytosolic protein) were used as loading controls.
IKK enzymatic activity was also determined to confirm whether it was correlated to the inhibition of IκBα phosphorylation by dLGG. Immunoprecipitated IKK proteins obtained from control cells (±LPS/−dLGG) or cells treated with LPS+dLGG were assayed for phosphorylation of GST-IκBα. The LPS-induced enzymatic phosphorylation of IκBα (p-IκBα) was decreased approximately 42% when treated with 75 μg/mL dLGG. The levels of immunoprecipitated IKK proteins were not affected by dLGG.

The subject of series [5] is B16 melanoma. Put plainly: In vivo inhibition of B16 melanoma growth in C57BL/6J mice. The conditions noted are these: mouse, in vivo, ip. The protocol: The chemopreventive effect of the CREa8 subfraction was evaluated on tumor growth using the B16 melanoma C57BL/6J mouse system. Six-week-old animals (4 groups of mice, 5 in each group) were used in this experiment. Group 1 mice (Sham control) were intraperitoneally (i.p.) injected with 20 μL of DMSO every 2 days throughout the experimental period, except 100 μL PBS was injected on day 0. Group 4 mice (Tumor control) were pre-treated with DMSO every 2 days, starting from day—14, for 2 weeks, inoculated with B16 tumor cells (1×10^6 cells/100 μL PBS) subcutaneously (s.c.) on the abdominal area on day 0, and then injected with DMSO every 2 days until day 21. Group 2 mice were i.p. pre-treated with CREa8 (10 mg/kg body weight per dose) every 2 days, starting from day—14, for 2 weeks, s.c. inoculated with B16 tumor cells on day 0, and then continuously treated with CREa8 (i.p.) every 2 days until day 21. Group 3 mice were similarly pre-treated with DMSO every 2 days for 2 weeks, inoculated with B16 tumor cells on day 0, and then treated with cisplatin (i.p.) every 2 days until day 21. The test mice were monitored daily, and body weights and tumor size (average of 2 dimensions) recorded every 2 days. At the end of the experiment (day 21), tumors were excised and weighed.
The cancer prevention efficacy of the dLGG-rich fraction (CREa8) was examined in vivo in 4 groups of mice according to the method described above. Cisplatin, a cancer chemotherapeutic, was used as a reference control.

In series [6] the test system is LPS binding to LPS receptors on macrophages. Put plainly: Binding of FITC-labeled LPS to macrophages. The format is cell-based, murine.

Take `CC/C=C\C/C=C\C/C=C\CCCCCCCC(=O)OC[C@H](CO[C@@H]1O[C@H](CO)[C@H](O)[C@H](O)[C@H]1O)OC(=O)CCCCCCC/C=C\C/C=C\C/C=C\CC` [dLGG, 1,2-di-O-α-linolenoyl-3-O-β-galactopyranosyl-sn-glycerol]: the “Reduction of iNOS mRNA expression” value in series [1] is on record as “approximately 56%”. The “Inhibition of COX-2 mRNA expression” value in series [2] is given as ~29%. The “Suppression of LPS-induced COX-2 protein synthesis” value in series [3] (50 μg/mL) was “approximately 60%”. In addition, in series [3] (75 μg/mL), the COX-2 protein level result was “barely detectable”. Also, the “Decrease of LPS-induced enzymatic phosphorylation of IκBα (IKK kinase assay, GST-IκBα)” value in series [4] (75 μg/mL) is listed as “approximately 42%”. Further, the “IRAK-1 degradation in LPS-stimulated macrophages” value in series [4] (LPS-stimulated) is recorded as “inhibited”. In addition, in series [4] (dLGG 1 h, LPS 1 μg/mL 30 min), the IKKα/β levels result is given as “little affected” and the “LPS-induced phosphorylation of IKKα/β” value is “inhibited”. In addition, the “Mortality or body weight loss on i.p. administration” value in series [5] is “without mortality or body weight loss”. Besides, in series [6], the “Binding of FITC-labeled LPS to the test macrophages” value is “dose-dependently suppress”.
